Laboratory results published in patent publication US12679807B2 (MERCK SHARP & DOHME LLC, priority 2020, dated 2026).

Molecular target: T1, GCS enzyme contained within Golgi preparations isolated from human A375 malignant melanoma skin cells (Homo sapiens, UniProt Q16739)
T1 construct: endogenous levels of GCS enzyme contained within Golgi preparations isolated from human A375 malignant melanoma skin cells; endogenous in cells; host or cells: A375 human malignant melanoma cells (crude Golgi preparation)
T1 sequence (Q16739 1-394): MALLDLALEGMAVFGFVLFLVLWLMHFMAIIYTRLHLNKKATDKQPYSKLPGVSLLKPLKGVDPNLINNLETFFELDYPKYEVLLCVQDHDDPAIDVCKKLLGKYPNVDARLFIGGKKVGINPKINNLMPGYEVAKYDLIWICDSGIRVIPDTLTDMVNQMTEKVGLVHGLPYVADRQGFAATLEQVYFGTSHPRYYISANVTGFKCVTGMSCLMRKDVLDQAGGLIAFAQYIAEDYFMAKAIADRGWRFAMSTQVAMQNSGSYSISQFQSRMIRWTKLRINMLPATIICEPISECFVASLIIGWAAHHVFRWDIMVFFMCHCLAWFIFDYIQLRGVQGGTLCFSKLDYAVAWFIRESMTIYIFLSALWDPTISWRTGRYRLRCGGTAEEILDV
Assay: UDP-Glo glucosylceramide synthase biochemical assay
Settings: crude Golgi preparation from A375 cells; C6 ceramide and UDP-glucose substrates; 20 h incubation at room temperature; UDP detected by luminescence
Procedure, shortened: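 Endogenous enzyme in A375 Golgi preparations (1.5 μg total protein) was preincubated 30 min with compound, then reacted 20 h at room temperature with UDP-glucose and ceramide.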

Row | Structure (SMILES) | EC50 [µM]
1 | CC(C)(O)[C@@H](C1CC1)N1Cc2cccc(-c3ccc(-n4ccnn4)cc3)c2C1=O [Compound 69, (R)-7-(4-(1H-1,2,3-triazol-1-yl)phenyl)-2-(1-cyclopropyl-2-hydroxy-2-methylpropyl)isoindolin-1-one] | 0.11
2 | Cc1nnc(-c2cc(F)c(-c3cccc4c3C(=O)N([C@H](C3CC3)C(C)(C)O)C4)cc2C)o1 [Compound 70, (R)-2-(1-cyclopropyl-2-hydroxy-2-methylpropyl)-7-(2-fluoro-5-methyl-4-(5-methyl-1,3,4-oxadiazol-2-yl)phenyl)isoindolin-1-one] | 0.00081
3 | Cc1nnc(-c2ccc(-c3cccc4c3C(=O)N([C@H](C3CC3)C(C)(C)O)C4)cc2C)o1 [Compound 71, (R)-2-(1-cyclopropy1-2-hydroxy-2-methylpropyl)-7-(3-methyl-4-(5-methyl-1,3,4-oxadiazol-2-yl)phenyl)isoindolin-1-one] | 0.00084
4 | Cc1nnc(-c2ccc(-c3cccc4c3C(=O)N([C@H](C3CC3)C(C)(C)O)C4)c(F)c2C)o1 [Compound 72, (R)-2-(1-cyclopropyl-2-hydroxy-2-methylpropyl)-7-(2-fluoro-3-methyl-4-(5-methyl-1,3,4-oxadiazol-2-yl)phenyl)isoindolin-1-one] | 0.00059
5 | CC(C)(O)[C@@H](C1CC1)N1Cc2cccc(-c3cccnc3OCC(F)(F)F)c2C1=O [Compound 73, (R)-2-(1-cyclopropyl-2-hydroxy-2-methylpropyl)-7-(2-(2,2,2-trifluoroethoxy)pyridin-3-yl)isoindolin-1-one] | 0.055
6 | CN1Cc2cc(-c3cccc4c3C(=O)N([C@H](C3CC3)C(C)(C)O)C4)ccc2CC1=O [Compound 74, (R)-7-(2-(1-cyclopropyl-2-hydroxy-2-methylpropyl)-3-oxoisoindolin-4-yl)-2-methyl-1,4-dihydroisoquinolin-3(2H)-one] | 0.04
7 | COc1cnc2cc(-c3cccc4c3C(=O)N([C@H](C3CC3)C(C)(C)O)C4)ccc2n1 [Compound 75, (R)-2-(1-cyclopropyl-2-hydroxy-2-methylpropyl)-7-(2-methoxyquinoxalin-6-yl)isoindolin-1-one] | 0.0088
8 | CCc1nnc(-c2ccc(-c3cccc4c3C(=O)N([C@H](C3CC3)C(C)(C)O)C4)cc2)o1 [Compound 76, (R)-2-(1-cyclopropyl-2-hydroxy-2-methylpropyl)-7-(4-(5-ethyl-1,3,4-oxadiazol-2-yl)phenyl)isoindolin-1-one] | 0.026

Results, then the molecule that gave them:

Row | EC50 [µM] | Structure (SMILES)
9 | 0.039 | CC(C)(O)[C@@H](C1CC1)N1Cc2cccc(-c3ccc(-c4ncco4)cc3)c2C1=O [Compound 77, (R)-2-(1-cyclopropyl-2-hydroxy-2-methylpropyl)-7-(4-(oxazol-2-yl)phenyl)isoindolin-1-one]
10 | 0.059 | Cc1noc(-c2ccc(-c3cccc4c3C(=O)N([C@H](C3CC3)C(C)(C)O)C4)cc2)n1 [Compound 78, (R)-2-(1-cyclopropyl-2-hydroxy-2-methylpropyl)-7-(4-(3-methyl-1,2,4-oxadiazol-5-yl)phenyl)isoindolin-1-one]
11 | 0.0021 | Cn1nc(-c2cccc3c2C(=O)N([C@H](C2CC2)C(C)(C)O)C3)c2ccccc21 [Compound 79, (R)-2-(1-cyclopropyl-2-hydroxy-2-methylpropyl)-7-(1-methyl-1H-indazol-3-yl)isoindolin-1-one]
12 | 0.00039 | Cn1nc(C(F)(F)F)c2cc(-c3cccc4c3C(=O)N([C@H](C3CC3)C(C)(C)O)C4)ccc21 [Compound 80, (R)-2-(1-cyclopropyl-2-hydroxy-2-methylpropyl)-7-(1-methyl-3-(trifluoromethyl)-1H-indazol-5-yl)isoindolin-1-one]
13 | 0.031 | Cc1nc(-c2cccc(-c3cccc4c3C(=O)N([C@H](C3CC3)C(C)(C)O)C4)c2)no1 [Compound 81, (R)-2-(1-cyclopropyl-2-hydroxy-2-methylpropyl)-7-(3-(5-methyl-1,2,4-oxadiazol-3-yl)phenyl)isoindolin-1-one]
